In brackets after ≈: the same amount, converted by molar mass. Activity calls are given as the source filed them. No cut-off for these calls is given here.
Experiments:
[1] = molecular target: T1, Lanosterol 14-alpha demethylase (Candida albicans (strain SC5314 / ATCC MYA-2876) (Yeast), UniProt P10613); experiment: Inhibition of CYP51 in Candida albicans ATCC SC5314 assessed as ergosterol level at 8 ug/ml after 16 hrs by GC-MS analysis (reference value: 98.3%); parameters: scale not given: the % may be the effect or the level left; conditions: candida albicans sc5314, 16 h, at 8 µg/mL
T1 sequence (P10613 whole entry): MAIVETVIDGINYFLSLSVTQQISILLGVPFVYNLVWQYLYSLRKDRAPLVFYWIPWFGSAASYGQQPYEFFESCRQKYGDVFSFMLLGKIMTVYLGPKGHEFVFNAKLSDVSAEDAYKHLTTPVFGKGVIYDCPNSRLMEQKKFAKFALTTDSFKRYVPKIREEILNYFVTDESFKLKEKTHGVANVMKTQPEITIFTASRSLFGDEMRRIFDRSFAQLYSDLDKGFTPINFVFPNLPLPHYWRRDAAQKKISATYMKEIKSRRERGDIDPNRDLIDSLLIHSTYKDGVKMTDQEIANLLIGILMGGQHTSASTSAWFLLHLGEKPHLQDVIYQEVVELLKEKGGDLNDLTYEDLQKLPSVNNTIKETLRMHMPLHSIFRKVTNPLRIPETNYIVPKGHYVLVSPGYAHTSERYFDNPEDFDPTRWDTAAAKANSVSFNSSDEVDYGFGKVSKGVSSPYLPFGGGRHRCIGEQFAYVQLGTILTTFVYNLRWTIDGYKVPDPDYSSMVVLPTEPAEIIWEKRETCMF

Aspergillus fumigatus = experiment: Antifungal activity against Aspergillus fumigatus CMGCC3.7795 measured after 72 hrs by broth microdilution assay; assay type: functional
[2] = molecular target: T1, Lanosterol 14-alpha demethylase; experiment: Inhibition of CYP51 in Candida albicans ATCC SC5314 assessed as ergosterol level at 0.03125 ug/ml after 16 hrs by GC-MS analysis (reference value: 98.3%); parameters: scale not given: the % may be the effect or the level left; conditions: candida albicans sc5314, 16 h, at 0.03125 µg/mL
[3] = molecular target: T1, Lanosterol 14-alpha demethylase; experiment: Inhibition of CYP51 in Candida albicans ATCC SC5314 assessed as Obtusifoliol level at 0.03125 ug/ml after 16 hrs by GC-MS analysis (reference value: 0%); parameters: scale not given: the % may be the effect or the level left; conditions: candida albicans sc5314, 16 h, at 0.03125 µg/mL
Pichia kudriavzevii = experiment: Antifungal activity against Candida krusei AS2.1045 measured after 24 hrs by broth microdilution assay; assay type: functional
[4] = molecular target: T1, Lanosterol 14-alpha demethylase; experiment: Inhibition of CYP51 in Candida albicans ATCC SC5314 assessed as Eburicol level at 0.03125 ug/ml after 16 hrs by GC-MS analysis (reference value: 0%); parameters: scale not given: the % may be the effect or the level left; conditions: candida albicans sc5314, 16 h, at 0.03125 µg/mL
[5] = molecular target: T1, Lanosterol 14-alpha demethylase; experiment: Inhibition of CYP51 in Candida albicans ATCC SC5314 assessed as Obtusifoliol level at 2 ug/ml after 16 hrs by GC-MS analysis (reference value: 0%); parameters: scale not given: the % may be the effect or the level left; conditions: candida albicans sc5314, 16 h, at 2 µg/mL
Candida albicans [6] = experiment: Antifungal activity against fluconazole-resistant Candida albicans 901 assessed as inhibition of microbial growth after 24 hrs by broth microdilution method; assay type: functional
[7] = molecular target: T1, Lanosterol 14-alpha demethylase; experiment: Inhibition of CYP51 in Candida albicans ATCC SC5314 assessed as ergosterol level at […] ug/ml after 16 hrs by GC-MS analysis (reference value: 98.3%); parameters: scale not given: the % may be the effect or the level left; conditions: candida albicans sc5314, 16 h, dose 0.125 µg/ml
[8] = molecular target: T1, Lanosterol 14-alpha demethylase; experiment: Inhibition of CYP51 in Candida albicans ATCC SC5314 assessed as lanosterol level at 2 ug/ml after 16 hrs by GC-MS analysis (reference value: 1.7%); parameters: scale not given: the % may be the effect or the level left; conditions: candida albicans sc5314, 16 h, at 2 µg/mL
[9] = molecular target: T1, Lanosterol 14-alpha demethylase; experiment: Inhibition of CYP51 in Candida albicans ATCC SC5314 assessed as Eburicol level at […] ug/ml after 16 hrs by GC-MS analysis (reference value: 0%); parameters: scale not given: the % may be the effect or the level left; conditions: candida albicans sc5314, 16 h, dose 0.125 µg/ml
Candida albicans [10] = experiment: Antifungal activity against Candida albicans ATCC SC5314 infected in mouse model of candidiasis assessed as reduction in kidney fungal burden at 0.6 mg/kg/day, ip dosed at 2 hrs post infection and dosed for 4 days; assay type: functional, organism-based; conditions: time 4.0 day
Candida albicans [11] = experiment: Anti-biofilm activity in Candida albicans CPCC400616 assessed as inhibition of biofilm formation incubated for 24 hrs with 24 hrs precultured fungal suspension by XTT assay; assay type: functional
[Candida] zeylanoides = Antifungal activity against Candida zeylanoides CMGCC2.3739 measured after 24 hrs by broth microdilution assay; assay type: functional; conditions: Dujonia zeylanoides
[12] = molecular target: T1, Lanosterol 14-alpha demethylase; experiment: Inhibition of CYP51 in Candida albicans ATCC SC5314 assessed as lanosterol level at 0.03125 ug/ml after 16 hrs by GC-MS analysis (reference value: 1.7%); parameters: scale not given: the % may be the effect or the level left; conditions: candida albicans sc5314, 16 h, at 0.03125 µg/mL
Candida albicans [13] = experiment: Antifungal activity against fluconazole-resistant Candida albicans 17# assessed as inhibition of microbial growth after 24 hrs by broth microdilution method; assay type: functional
[14] = molecular target: T1, Lanosterol 14-alpha demethylase; experiment: Inhibition of CYP51 in Candida albicans ATCC SC5314 assessed as lanosterol level at […] ug/ml after 16 hrs by GC-MS analysis (reference value: 1.7%); parameters: scale not given: the % may be the effect or the level left; conditions: candida albicans sc5314, 16 h, dose 0.125 µg/ml
[15] = molecular target: T1, Lanosterol 14-alpha demethylase; experiment: Inhibition of CYP51 in Candida albicans ATCC SC5314 assessed as Obtusifoliol level at […] ug/ml after 16 hrs by GC-MS analysis (reference value: 0%); parameters: scale not given: the % may be the effect or the level left; conditions: candida albicans sc5314, 16 h, dose 0.125 µg/ml
[16] = molecular target: T1, Lanosterol 14-alpha demethylase; experiment: Inhibition of CYP51 in Candida albicans ATCC SC5314 assessed as Obtusifoliol level at 0.5 ug/ml after 16 hrs by GC-MS analysis (reference value: 0%); parameters: scale not given: the % may be the effect or the level left; conditions: candida albicans sc5314, 16 h, at 0.5 µg/mL
Candida parapsilosis = experiment: Antifungal activity against Candida parapsilosis ATCC 22019 measured after 24 hrs by broth microdilution assay; assay type: functional; conditions: Lodderomyces parapsilosis
Candida albicans [17] = experiment: Antifungal activity against Candida albicans CPCC400616 measured after 24 hrs by broth microdilution assay; assay type: functional
[18] = molecular target: T1, Lanosterol 14-alpha demethylase; experiment: Inhibition of CYP51 in Candida albicans ATCC SC5314 assessed as ergosterol level at 0.5 ug/ml after 16 hrs by GC-MS analysis (reference value: 98.3%); parameters: scale not given: the % may be the effect or the level left; conditions: candida albicans sc5314, 16 h, at 0.5 µg/mL
[19] = molecular target: T1, Lanosterol 14-alpha demethylase; experiment: Inhibition of CYP51 in Candida albicans ATCC SC5314 assessed as Eburicol level at 8 ug/ml after 16 hrs by GC-MS analysis (reference value: 0%); parameters: scale not given: the % may be the effect or the level left; conditions: candida albicans sc5314, 16 h, at 8 µg/mL
Candida albicans [20] = experiment: Antifungal activity against fluconazole-resistant Candida albicans 632 assessed as inhibition of microbial growth after 24 hrs by broth microdilution method; assay type: functional
[21] = molecular target: T1, Lanosterol 14-alpha demethylase; experiment: Inhibition of CYP51 in Candida albicans ATCC SC5314 assessed as Obtusifoliol level at 8 ug/ml after 16 hrs by GC-MS analysis (reference value: 0%); parameters: scale not given: the % may be the effect or the level left; conditions: candida albicans sc5314, 16 h, at 8 µg/mL
[22] = molecular target: T1, Lanosterol 14-alpha demethylase; experiment: Inhibition of CYP51 in Candida albicans ATCC SC5314 assessed as Eburicol level at 0.5 ug/ml after 16 hrs by GC-MS analysis (reference value: 0%); parameters: scale not given: the % may be the effect or the level left; conditions: candida albicans sc5314, 16 h, at 0.5 µg/mL
[23] = molecular target: T1, Lanosterol 14-alpha demethylase; experiment: Inhibition of CYP51 in Candida albicans ATCC SC5314 assessed as lanosterol level at 8 ug/ml after 16 hrs by GC-MS analysis (reference value: 1.7%); parameters: scale not given: the % may be the effect or the level left; conditions: candida albicans sc5314, 16 h, at 8 µg/mL
[24] = molecular target: T1, Lanosterol 14-alpha demethylase; experiment: Inhibition of CYP51 in Candida albicans ATCC SC5314 assessed as ergosterol level at 2 ug/ml after 16 hrs by GC-MS analysis (reference value: 98.3%); parameters: scale not given: the % may be the effect or the level left; conditions: candida albicans sc5314, 16 h, at 2 µg/mL
Candida albicans [25] = experiment: Antifungal activity against Candida albicans ATCC SC5314 measured after 24 hrs by broth microdilution assay; assay type: functional
Cryptococcus neoformans = experiment: Antifungal activity against Cryptococcus neoformans CMGCC2.3161 measured after 72 hrs by broth microdilution assay; assay type: functional
Candida albicans [26] = experiment: Antifungal activity against fluconazole-resistant Candida albicans CaR assessed as inhibition of microbial growth after 24 hrs by broth microdilution method; assay type: functional
Candida albicans [27] = experiment: Antifungal activity against fluconazole-resistant Candida albicans 904 assessed as inhibition of microbial growth after 24 hrs by broth microdilution method; assay type: functional
[28] = molecular target: T1, Lanosterol 14-alpha demethylase; experiment: Inhibition of CYP51 in Candida albicans ATCC SC5314 assessed as lanosterol level at 0.5 ug/ml after 16 hrs by GC-MS analysis (reference value: 1.7%); parameters: scale not given: the % may be the effect or the level left; conditions: candida albicans sc5314, 16 h, at 0.5 µg/mL
[29] = molecular target: T1, Lanosterol 14-alpha demethylase; experiment: Inhibition of CYP51 in Candida albicans ATCC SC5314 assessed as Eburicol level at 2 ug/ml after 16 hrs by GC-MS analysis (reference value: 0%); parameters: scale not given: the % may be the effect or the level left; conditions: candida albicans sc5314, 16 h, at 2 µg/mL
Nakaseomyces glabratus = experiment: Antifungal activity against Candida glabrata measured after 24 hrs by broth microdilution assay; assay type: functional

OC(Cn1cncn1)(Cn1cncn1)c1ccc(F)cc1F [FLUCONAZOLE]
Activity [1]: 4.2% | MIC (Aspergillus fumigatus): > 128 µg/mL | Activity [2]: 86.34% | Activity [3]: 1% | MIC (Pichia kudriavzevii): 32 µg/mL (≈ 104 µM) | Activity [4]: 2.9% | Activity [5]: 9.5% | MIC (Candida albicans [6]): > 128 µg/mL | Activity [7]: 80.8% | Activity [8]: 7.2% | Activity [9]: 5.3% | Activity (Candida albicans [10]): Active | MIC (Candida albicans [11]): > 1020 µg/mL | MIC ([Candida] zeylanoides): 4 µg/mL (≈ 13.1 µM) | Activity [12]: 9.8% | MIC (Candida albicans [13]): 128 µg/mL | Activity [14]: 12.4% | Activity [15]: 1.6% | Activity [16]: 2.9% | MIC (Candida parapsilosis): 4 µg/mL (≈ 13.1 µM) | MIC (Candida albicans [17]): 4 µg/mL (≈ 13.1 µM) | Activity [18]: 78.9% | Activity [19]: 70.3% | MIC (Candida albicans [20]): > 128 µg/mL | Activity [21]: 11.4% | Activity [22]: 6.7% | Activity [23]: 14.1% | Activity [24]: 19.8% | MIC (Candida albicans [25]): 1 µg/mL (≈ 3.27 µM) | MIC (Cryptococcus neoformans): 4 µg/mL (≈ 13.1 µM) | MIC (Candida albicans [26]): > 128 µg/mL | MIC (Candida albicans [27]): > 128 µg/mL | Activity [28]: 11.6% | Activity [29]: 63.5% | MIC (Nakaseomyces glabratus): 32 µg/mL (≈ 104 µM)

Reference: ChEMBL document CHEMBL4813985, “Lead optimization generates selenium-containing miconazole CYP51 inhibitors with improved pharmacological profile for the treatment of fungal infections” (Eur J Med Chem, 2021)
